Assay results reported in EP2752664A1, “Label-free method for the detection of analytes” (priority 2013, dated 2014).
Like-named read-outs stand apart in the source and are kept apart here.

Legend:
[1] = molecular target: T1, mannose/Concanavalin A interaction (Canavalia ensiformis, UniProt P02866); assay: Inhibition competition assay with hydrogel particles, surface energy read out via RICM (SCP-RICM, inventive method); assay type: binding; settings: for IC50: read-out: IC50 value determined using an inventive method
[2] = molecular target: T1, mannose/Concanavalin A interaction; settings: SPR measurements reported earlier; PAA Man values normalized per mannose; read-out: IC50 value determined using SPR inhibition assay; cited from earlier work

Q: With `CO[C@H]1O[C@H](CO)[C@@H](O)[C@H](O)[C@@H]1O` [α-methyl-D-mannose] as the compound, how does the “contact areas of functionalized hydrogel particles and surface energies” value ([1]; 10 mM analyte added into the measurement cell (critical level of competitive analyte)) read?
A: completely vanish

Q: What about the surface energy ([1]; analyte at lower concentrations up to 5 mM, particles still in contact with the carrier surface) of the same compound?
A: gradually decreases with the concentration of added analyte

Q: And the IC50 ([1]; inverted system: PEG-ConA particles against a mannose functionalized surface (Fig. 7b))?
A: 649 ± 76.8 µM

Q: And the IC50 ([1]; mannose functionalized hydrogel particles, ConA immobilized on the solid carrier (Fig. 7a), Hill fit of normalized surface energy, PAA Man values normalized per mannose)?
A: 618 ± 19.1 µM

Q: And the IC50 [2]?
A: 750 µM
